The supplement of paper PMC10307832

Columns and labels:
Assay in all cases: relative viability (nuclei count vs DMSO), 5 days (fraction); higher = more cells survive
HOP-62 = test system: HOP-62
Summary of the method: (§1)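 Relative viability divides the nuclei count in treated wells by that in vehicle wells. Lung cancer cell lines were seeded in 1536-well plates, dosed by pin tool the next day, and fixed and stained after 5 days in one step with final 0.05% Triton X-100, 1% formaldehyde and 1 ug/ml Hoechst. Dosing was a single drug or a fixed anchor-drug dose plus five library-drug doses (not always all listed) in √10 steps, and values are medians of duplicate plates imaged at 4×.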

ChaGo-K-1 = test system: ChaGo-K-1
Summary of the method: as §1

COR-L23 = test system: COR-L23
Summary of the method: as §1

ABC-1 = test system: ABC-1
Summary of the method: as §1

EMC-BAC-2 = test system: EMC-BAC-2
Summary of the method: as §1

NCI-H838 = test system: NCI-H838
Summary of the method: as §1

NCI-H2126 = test system: NCI-H2126
Summary of the method: as §1

NCI-H1993 = test system: NCI-H1993
Summary of the method: as §1

SK-LU-1 = test system: SK-LU-1
Summary of the method: as §1

HCC-366 = test system: HCC-366
Summary of the method: as §1

NCI-H358 = test system: NCI-H358
Summary of the method: as §1

NCI-H23 = test system: NCI-H23
Summary of the method: as §1

NCI-H2023 = test system: NCI-H2023
Summary of the method: as §1

NCI-H1944 = test system: NCI-H1944
Summary of the method: as §1

HCC-78 = test system: HCC-78
Summary of the method: as §1

NCI-H1793 = test system: NCI-H1793
Summary of the method: as §1

NCI-H1395 = test system: NCI-H1395
Summary of the method: as §1

NCI-H2228 = test system: NCI-H2228
Summary of the method: as §1

NCI-H2405 = test system: NCI-H2405
Summary of the method: as §1

HCC-15 = test system: HCC-15
Summary of the method: as §1

HARA = test system: HARA
Summary of the method: as §1

LC-2-ad = test system: LC-2-ad
Summary of the method: as §1

COc1cc2nccc(Oc3ccc(NC(=O)Nc4cc(C)on4)c(Cl)c3)c2cc1OC [Tivozanib] + Cc1nc(Nc2ncc(C(=O)Nc3c(C)cccc3Cl)s2)cc(N2CCN(CCO)CC2)n1 [Dasatinib] (partner 0.075 µM)
relative viability (HOP-62; first compound 0.005 µM): 0.638
relative viability (HOP-62; first compound 0.01581 µM): 0.668
relative viability (HOP-62; first compound 0.05 µM): 0.633
relative viability (HOP-62; first compound 0.1581 µM): 0.583
relative viability (HOP-62; first compound 0.5 µM): 0.698
relative viability (ChaGo-K-1; first compound 0.005 µM): 0.543
relative viability (ChaGo-K-1; first compound 0.01581 µM): 0.61
relative viability (ChaGo-K-1; first compound 0.05 µM): 0.626
relative viability (ChaGo-K-1; first compound 0.1581 µM): 0.602
relative viability (ChaGo-K-1; first compound 0.5 µM): 0.581
relative viability (COR-L23; first compound 0.005 µM): 0.484
relative viability (COR-L23; first compound 0.01581 µM): 0.515
relative viability (COR-L23; first compound 0.05 µM): 0.462
relative viability (COR-L23; first compound 0.1581 µM): 0.485
relative viability (COR-L23; first compound 0.5 µM): 0.452
relative viability (ABC-1; first compound 0.005 µM): 0.649
relative viability (ABC-1; first compound 0.01581 µM): 0.583
relative viability (ABC-1; first compound 0.05 µM): 0.729
relative viability (ABC-1; first compound 0.1581 µM): 0.489
relative viability (ABC-1; first compound 0.5 µM): 0.323
relative viability (EMC-BAC-2; first compound 0.005 µM): 0.313
relative viability (EMC-BAC-2; first compound 0.01581 µM): 0.314
relative viability (EMC-BAC-2; first compound 0.05 µM): 0.313
relative viability (EMC-BAC-2; first compound 0.1581 µM): 0.273
relative viability (EMC-BAC-2; first compound 0.5 µM): 0.237
relative viability (NCI-H838; first compound 0.005 µM): 0.212
relative viability (NCI-H838; first compound 0.01581 µM): 0.31
relative viability (NCI-H838; first compound 0.05 µM): 0.292
relative viability (NCI-H838; first compound 0.1581 µM): 0.307
relative viability (NCI-H838; first compound 0.5 µM): 0.295
relative viability (NCI-H2126; first compound 0.005 µM): 0.499
relative viability (NCI-H2126; first compound 0.01581 µM): 0.567
relative viability (NCI-H2126; first compound 0.05 µM): 0.636
relative viability (NCI-H2126; first compound 0.1581 µM): 0.412
relative viability (NCI-H2126; first compound 0.5 µM): 0.494
relative viability (NCI-H1993; first compound 0.005 µM): 0.609
relative viability (NCI-H1993; first compound 0.01581 µM): 0.605
relative viability (NCI-H1993; first compound 0.05 µM): 0.692
relative viability (NCI-H1993; first compound 0.1581 µM): 0.496
relative viability (NCI-H1993; first compound 0.5 µM): 0.504
relative viability (SK-LU-1; first compound 0.005 µM): 0.165
relative viability (SK-LU-1; first compound 0.01581 µM): 0.173
relative viability (SK-LU-1; first compound 0.05 µM): 0.162
relative viability (SK-LU-1; first compound 0.1581 µM): 0.19
relative viability (SK-LU-1; first compound 0.5 µM): 0.208
relative viability (HCC-366; first compound 0.005 µM): 0.582
relative viability (HCC-366; first compound 0.01581 µM): 0.601
relative viability (HCC-366; first compound 0.05 µM): 0.671
relative viability (HCC-366; first compound 0.1581 µM): 0.727
relative viability (HCC-366; first compound 0.5 µM): 0.587
relative viability (NCI-H358; first compound 0.005 µM): 0.136
relative viability (NCI-H358; first compound 0.01581 µM): 0.165
relative viability (NCI-H358; first compound 0.05 µM): 0.174
relative viability (NCI-H358; first compound 0.1581 µM): 0.141
relative viability (NCI-H358; first compound 0.5 µM): 0.184
relative viability (NCI-H23; first compound 0.005 µM): 0.693
relative viability (NCI-H23; first compound 0.01581 µM): 0.707
relative viability (NCI-H23; first compound 0.05 µM): 0.769
relative viability (NCI-H23; first compound 0.1581 µM): 0.389
relative viability (NCI-H23; first compound 0.5 µM): 0.753
relative viability (NCI-H2023; first compound 0.005 µM): 0.515
relative viability (NCI-H2023; first compound 0.01581 µM): 0.577
relative viability (NCI-H2023; first compound 0.05 µM): 0.55
relative viability (NCI-H2023; first compound 0.1581 µM): 0.561
relative viability (NCI-H2023; first compound 0.5 µM): 0.523
relative viability (NCI-H1944; first compound 0.005 µM): 0.236
relative viability (NCI-H1944; first compound 0.01581 µM): 0.246
relative viability (NCI-H1944; first compound 0.05 µM): 0.208
relative viability (NCI-H1944; first compound 0.1581 µM): 0.192
relative viability (NCI-H1944; first compound 0.5 µM): 0.208
relative viability (HCC-78; first compound 0.005 µM): 0.365
relative viability (HCC-78; first compound 0.01581 µM): 0.387
relative viability (HCC-78; first compound 0.05 µM): 0.466
relative viability (HCC-78; first compound 0.1581 µM): 0.263
relative viability (HCC-78; first compound 0.5 µM): 0.362
relative viability (NCI-H1793; first compound 0.005 µM): 0.351
relative viability (NCI-H1793; first compound 0.01581 µM): 0.355
relative viability (NCI-H1793; first compound 0.05 µM): 0.388
relative viability (NCI-H1793; first compound 0.1581 µM): 0.204
relative viability (NCI-H1793; first compound 0.5 µM): 0.428
relative viability (NCI-H1395; first compound 0.005 µM): 0.376
relative viability (NCI-H1395; first compound 0.01581 µM): 0.407
relative viability (NCI-H1395; first compound 0.05 µM): 0.404
relative viability (NCI-H1395; first compound 0.1581 µM): 0.386
relative viability (NCI-H1395; first compound 0.5 µM): 0.371
relative viability (NCI-H2228; first compound 0.005 µM): 0.431
relative viability (NCI-H2228; first compound 0.01581 µM): 0.532
relative viability (NCI-H2228; first compound 0.05 µM): 0.551
relative viability (NCI-H2228; first compound 0.1581 µM): 0.445
relative viability (NCI-H2228; first compound 0.5 µM): 0.524
relative viability (NCI-H2405; first compound 0.005 µM): 0.216
relative viability (NCI-H2405; first compound 0.01581 µM): 0.242
relative viability (NCI-H2405; first compound 0.05 µM): 0.202
relative viability (NCI-H2405; first compound 0.1581 µM): 0.266
relative viability (NCI-H2405; first compound 0.5 µM): 0.19
relative viability (HCC-15; first compound 0.005 µM): 0.534
relative viability (HCC-15; first compound 0.01581 µM): 0.579
relative viability (HCC-15; first compound 0.05 µM): 0.621
relative viability (HCC-15; first compound 0.1581 µM): 0.67
relative viability (HCC-15; first compound 0.5 µM): 0.607
relative viability (HARA; first compound 0.005 µM): 0.242
relative viability (HARA; first compound 0.01581 µM): 0.269
relative viability (HARA; first compound 0.05 µM): 0.286
relative viability (HARA; first compound 0.1581 µM): 0.19
relative viability (HARA; first compound 0.5 µM): 0.251
relative viability (LC-2-ad; first compound 0.005 µM): 0.458
relative viability (LC-2-ad; first compound 0.01581 µM): 0.504
relative viability (LC-2-ad; first compound 0.05 µM): 0.615
relative viability (LC-2-ad; first compound 0.1581 µM): 0.268
relative viability (LC-2-ad; first compound 0.5 µM): 0.208
